Measurements: ChEMBL document CHEMBL5506037, “Synthesis of Heterocyclic Ring-Fused Bisnoralcohol Derivatives as Novel Small-Molecule Antiosteoporosis Agents” (J Med Chem, 2024)
The source made the active and inactive calls. The calls are words filed in the database; no cut-off is given here.

What was measured:
[1] = Cytotoxicity against M-CSF induced C57BL/6J mouse BMMC cells assessed as cell viability at 10 uM incubated for 48 hrs by CCK-8 assay relative to control; assay type: toxicity, cell-based; conditions: read-out: Activity
[2] = Tmax in ICR mouse at 1 mg/kg, iv measured upto 24 hrs by LC-MS/MS analysis; assay type: ADME, organism-based; conditions: in vivo
[3] = AUC (0 to infinity) in ICR mouse at 1 mg/kg, iv measured upto 24 hrs by LC-MS/MS analysis; assay type: ADME, organism-based; conditions: in vivo
[4] = Total plasma clearance in ICR mouse at 1 mg/kg, iv measured upto 24 hrs by LC-MS/MS analysis; assay type: ADME, organism-based
[5] = Terminal elimination half life in ICR mouse at 1 mg/kg, iv measured upto 24 hrs by LC-MS/MS analysis; assay type: ADME, organism-based; conditions: in vivo, read-out: beta t1/2 (converted)
[6] = Tmax in ICR mouse at 10 mg/kg, po measured upto 24 hrs by LC-MS/MS analysis; assay type: ADME, organism-based; conditions: in vivo
[7] = AUC (0 to infinity) in ICR mouse at 10 mg/kg, po measured upto 24 hrs by LC-MS/MS analysis; assay type: ADME, organism-based; conditions: in vivo
[8] = Oral bioavailability in ICR mouse at 10 mg/kg measured upto 24 hrs by LC-MS/MS analysis; assay type: ADME, organism-based; conditions: in vivo
BMMC [9] = assay: Anti-osteoclastogenesis activity in M-CSF/RANKL-induced C57BL/6J mouse BMMC cells assessed as inhibition of osteoclast differentiation incubated for 7 days by TRAP staining based analysis; assay type: functional, cell-based; conditions: 168 h
BMMC [10] = assay: Anti-osteoclastogenesis activity in M-CSF/RANKL-induced C57BL/6J mouse BMMC cells assessed as reduction in size and amount of osteoclasts by measuring reduction in TRAP-positive multinucleated cells incubated for 7 days by TRAP staining based analysis; assay type: functional, cell-based; conditions: dose 0.05-0.5 µM, time 7.0 day
BMMC [11] = assay: Anti-osteoclastogenesis activity in M-CSF/RANKL-induced C57BL/6J mouse BMMC cells assessed as reduction in osteoclast generation at 0.5 uM incubated for 7 days by TRAP staining based analysis relative to control; assay type: functional; parameters: scale not given: the % may be the effect or the level left; conditions: time 7 day
BMMC [12] = assay: Anti-osteoclastogenesis activity in M-CSF/RANKL-induced C57BL/6J mouse BMMC cells assessed as inhibition of osteoclast differentiation at mid-stage at 0.1 uM measured after 3 to 5 days by TRAP staining based analysis relative to control; assay type: functional; conditions: time 3-5 day
BMMC [13] = assay: Anti-osteoclastogenesis activity in M-CSF/RANKL-induced C57BL/6J mouse BMMC cells assessed as inhibition of osteoclast differentiation at late stage at 0.1 uM measured after 5 to 7 days by TRAP staining based analysis relative to control; assay type: functional; conditions: time 5-7 day
BMMC [14] = assay: Anti-osteoclastogenesis activity in M-CSF/RANKL-induced C57BL/6J mouse BMMC cells assessed as reduction in TRAP mRNA expression at 0.05 to 5 uM measured after 2 days by RT-qPCR analysis; assay type: functional, cell-based; conditions: dose 0.05-5 µM, time 2.0 day
BMMC [15] = assay: Anti-osteoclastogenesis activity in M-CSF/RANKL-induced C57BL/6J mouse BMMC cells assessed as reduction in c-Fos mRNA expression at 0.05 to 5 uM measured after 2 days by RT-qPCR analysis; assay type: functional, cell-based; conditions: dose 0.05-5 µM, time 2.0 day
BMMC [16] = assay: Anti-osteoclastogenesis activity in M-CSF/RANKL-induced C57BL/6J mouse BMMC cells assessed as reduction in c-Fos protein expression measured after 3 days by Western blot analysis; assay type: functional, cell-based; conditions: dose 0.05-5 µM, time 3.0 day
BMMC [17] = assay: Anti-osteoclastogenesis activity in M-CSF/RANKL-induced C57BL/6J mouse BMMC cells assessed as inhibition of Acp5 gene expression by RNA sequencing analysis; assay type: functional, cell-based
BMMC [18] = assay: Anti-osteoclastogenesis activity in M-CSF/RANKL-induced C57BL/6J mouse BMMC cells assessed as inhibition of CALCR gene expression by RNA sequencing analysis; assay type: functional, cell-based
BMMC [19] = assay: Anti-osteoclastogenesis activity in M-CSF/RANKL-induced C57BL/6J mouse BMMC cells assessed as inhibition of FOS gene expression by RNA sequencing analysis; assay type: functional, cell-based
BMMC [20] = assay: Anti-osteoclastogenesis activity in M-CSF/RANKL-induced C57BL/6J mouse BMMC cells assessed as inhibition of Fosl1 gene expression by RNA sequencing analysis; assay type: functional, cell-based
BMMC [21] = assay: Anti-osteoclastogenesis activity in M-CSF/RANKL-induced C57BL/6J mouse BMMC cells assessed as inhibition of Oscar gene expression by RNA sequencing analysis; assay type: functional, cell-based
[22] = Toxicity in ovariectomized female C57BL/6 mouse assessed as reduction in body weight at 0.2 to 0.6 mg/kg, ip administered every day for 6 weeks; assay type: organism-based; conditions: in vivo, 1008 h, dose 0.2-0.6 mg/kg
Mus musculus = assay: Anti-osteoporosis activity in ovariectomized C57BL/6 mouse assessed as prevention of bone loss by measuring recovery of trabecular number in femur at 0.6 mg/kg, ip administered every day for 6 weeks by 3D-imaging analysis relative to control; assay type: functional

Tmax [2]: 4.8 min
AUC(0-inf) [3]: 526 ng·h/mL
clearance [4]: 31.7 mL/min/kg
half-life [5]: 106 min
Tmax [6]: 40.2 min
AUC(0-inf) [7]: 688 ng·h/mL
bioavailability [8]: 13.1%
Structure (SMILES): CCNC(=O)[C@@H](C)[C@H]1CC[C@H]2[C@@H]3CC=C4C(C)(C)c5nnsc5C[C@]4(C)[C@H]3CC[C@]12C
viability at 48 h, 10 µM [1]: ≥ 100%
IC50 (BMMC [9]): 52 nM
Activity (BMMC [10]): Dose-Dependent Effect
Activity (BMMC [11]): ~100%
inhibition at 0.1 µM (BMMC [12]): 40.2%
inhibition at 0.1 µM (BMMC [13]): 10.9%
Activity (BMMC [14]): Active
Activity (BMMC [15]): Active
Activity (BMMC [16]): Dose-Dependent Effect
Activity (BMMC [17]): Active
Activity (BMMC [18]): Active
Activity (BMMC [19]): Active
Activity (BMMC [20]): Active
Activity (BMMC [21]): Active
Activity [22]: Non-Toxic
Activity (Mus musculus): 48.64%
